Experimental data reported in patent US11319289B2, “5-hydroxy pyridine-based compound for use as P2X1 and P2X3 receptor antagonist and pharmaceutical composition comprising same” (GWANGJU INSTITUTE OF SCIENCE AND TECHNOLOGY, priority 2017, dated 2022).
Several values for one entry are separate records, joined by “and”; a condition that tells them apart may be missing. Equal entries are not always repeated.

How the values were obtained:
Type in all cases: cell-based
[1] = molecular target: T1, mouse P2X1 receptor (mP2X1) (Mus musculus, UniProt P51576); test: Two-electrode voltage clamp assay, recombinant mP2X1 receptor in Xenopus oocytes; conditions: 10 μM compound, 2 μM ATP, mean±SEM n≥3 (footnote c); for inhibition at 10 µM: read-out: mP2X1 % inhibitory effect at 10 μM
T1 construct: expressed in transfected cells; host or cells: Xenopus oocytes (cRNA microinjection)
T1 sequence (P51576 1-399): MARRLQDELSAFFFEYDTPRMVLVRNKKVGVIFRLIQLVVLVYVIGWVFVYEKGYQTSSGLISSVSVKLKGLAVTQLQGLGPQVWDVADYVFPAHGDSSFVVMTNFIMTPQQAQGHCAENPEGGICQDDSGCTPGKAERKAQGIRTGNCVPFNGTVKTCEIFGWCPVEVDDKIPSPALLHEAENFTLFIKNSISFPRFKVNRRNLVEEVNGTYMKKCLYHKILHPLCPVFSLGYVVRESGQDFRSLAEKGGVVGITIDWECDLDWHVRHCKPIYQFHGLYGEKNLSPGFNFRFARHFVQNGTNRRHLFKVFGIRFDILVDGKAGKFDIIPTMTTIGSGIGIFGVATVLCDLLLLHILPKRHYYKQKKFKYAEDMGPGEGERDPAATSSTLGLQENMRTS
Description: (§1) 1-1. Two-Electrode Voltage Clamp Assay for Recombinant mP2X1 and hP2X3 Receptors
(§2) Xenopus oocytes were isolated and incubated with 270 U/mg of collagenase at 23 to 24° C. for 1.5 hours. Defolliculated oocytes were kept in Barth's solution at 18° C. After 1 day, the defolliculated oocytes were each microinjected cytosolically with mP2X1 and human P2X3 receptor cRNA ([…], 1 μg/mL), incubated for 24 hours at 18° C. in Barth's solution. The cRNA-injected oocytes were kept for 12 days at 4° C. ATP-activated membrane currents (Vh=−70 mV) were recorded from the cRNA-injected oocytes using the two-electrode voltage clamp technique (Axoclamp 2B amplifier). Voltage recording ([…] tip resistance) and current-recording microelectrodes (5 MΩ tip resistance) were filled with 3.0 M KCl. Oocytes were placed in an electrophysiological chamber continuously superfused with Ringer's solution (5 mL/min, at 18° C.) containing 110 mM NaCl, 2.5 mM KCl, 5 mM HEPES and 1.8 mM BaCl2, with pH adjusted to 7.5. To induce an evoked current, 2 μM ATP was superfused for 60 to 120 seconds and then washed for 20 min. For data analysis, the ATP-evoked current was normalized at pH 7.5. The compounds were introduced to the fixed oocytes 20 minutes prior to ATP exposure in the electrophysiological chamber. IC50 values (the concentration of the compound required to inhibit the ATP response by 50%) were determined by Hill plots designed using the Chemical Formula: log(I/Imax−1), where I is the current evoked by ATP in the presence of an antagonist. Data are presented as mean±SEM (n≥3) from different batches of oocytes.
(§3) In order to investigate the structure-activity relationship (SAR) of the compounds synthesized in the present invention, the antagonistic activity was evaluated by a two-electrode voltage clamp (TEVC) assay in Xenopus oocytes expressing the recombinant mP2X1 or hP2X3, respectively. The hP2X7R antagonistic activity was assessed using an ethidium ion accumulation assay in human HEK293 cells stably expressing the recombinant human P2X7R.

[2] = molecular target: T2, human P2X3 receptor (hP2X3) (Homo sapiens, UniProt P56373); test: Two-electrode voltage clamp assay, recombinant hP2X3 receptor in Xenopus oocytes; conditions: Xenopus oocytes; for inhibition at 1 µM: 1 μM compound, 2 μM ATP, mean±SEM n≥3 (footnote b), read-out: hP2X3 % inhibitory effect at 1 μM; for IC50: 2 μM ATP-evoked current, mean±SEM n≥3 (footnote d)
T2 construct: expressed in transfected cells; host or cells: Xenopus oocytes (cRNA microinjection)
T2 sequence (P56373 1-397): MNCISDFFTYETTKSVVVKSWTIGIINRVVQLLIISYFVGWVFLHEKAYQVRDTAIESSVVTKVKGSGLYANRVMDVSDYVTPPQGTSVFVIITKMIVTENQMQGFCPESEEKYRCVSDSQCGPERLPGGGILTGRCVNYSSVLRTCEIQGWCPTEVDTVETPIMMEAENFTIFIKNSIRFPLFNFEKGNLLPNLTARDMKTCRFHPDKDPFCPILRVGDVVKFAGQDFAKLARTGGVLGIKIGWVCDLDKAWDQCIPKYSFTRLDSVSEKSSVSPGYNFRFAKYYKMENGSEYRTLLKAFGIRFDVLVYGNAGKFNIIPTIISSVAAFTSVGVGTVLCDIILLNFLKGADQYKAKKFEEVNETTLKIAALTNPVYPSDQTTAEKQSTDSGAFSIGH
Description: as §1, §2, §3

[3] = molecular target: T3, human P2X7 receptor (hP2X7) (Homo sapiens, UniProt Q99572); test: Ethidium bromide accumulation assay in hP2X7-expressing HEK293 cells; conditions: 10 μM compound with BzATP
T3 construct: expressed in transfected cells
T3 sequence (Q99572 1-595): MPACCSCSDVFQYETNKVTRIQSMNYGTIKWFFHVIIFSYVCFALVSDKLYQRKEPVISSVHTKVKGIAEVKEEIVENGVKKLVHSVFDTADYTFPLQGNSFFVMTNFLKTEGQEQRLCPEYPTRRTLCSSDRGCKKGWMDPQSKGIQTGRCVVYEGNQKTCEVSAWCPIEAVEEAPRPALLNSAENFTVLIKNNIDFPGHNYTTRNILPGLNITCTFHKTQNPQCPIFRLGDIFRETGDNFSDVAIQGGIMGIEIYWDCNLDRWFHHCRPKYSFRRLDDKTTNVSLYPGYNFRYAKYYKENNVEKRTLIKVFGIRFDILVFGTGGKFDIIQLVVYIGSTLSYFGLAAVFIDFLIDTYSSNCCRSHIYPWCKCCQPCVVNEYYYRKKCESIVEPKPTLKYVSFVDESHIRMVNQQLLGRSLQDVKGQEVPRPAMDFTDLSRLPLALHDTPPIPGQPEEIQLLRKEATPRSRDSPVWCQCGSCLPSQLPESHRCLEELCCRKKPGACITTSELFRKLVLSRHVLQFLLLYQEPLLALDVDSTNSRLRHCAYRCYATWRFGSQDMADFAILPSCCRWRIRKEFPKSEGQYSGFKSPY
Description: 1-2. Ethidium Bromide Accumulation Assay in hP2X-Expressing HEK293 Cells
HEK293 cells that are stably transfected with the human P2X7 receptor (P2X7R) were kept under a humidified atmosphere of 5% CO2 at 37° C. in DMEM supplemented with 10% (v/v) FBS, 2 mM L-glutamine and antibiotics (50 U/mL penicillin and 50 μg/ml streptomycin). BzATP-induced pore formation was measured using a fluorescence plate reader by measuring cellular absorption of ethidium in the hP2X7-expressing HEK293 cells. The hP2X7-expressing HEK293 cells were washed once with an appropriate assay buffer, and the buffer was also removed before subsequent analysis. All studies were performed at room temperature and the final assay volume was 100 μL. The cells were resuspended at 2.5×10^6 cells/mL in assay buffers consisting of 10 mM HEPES, 5 mM N-methyl-D-glucamine, 5.6 mM KCl, 10 mM D-glucose and 0.5 mM CaCl2 (pH 7.4) and supplemented with 280 mM sucrose or 140 mM NaCl.
In order to determine the antagonistic activity of the 5-hydroxyl-pyridine derivatives of the present invention and the reference compound (AZD9056), these compounds were added to the cells at a concentration of 10 μM with BzATP without pre-incubation. The cells were incubated for 2 hours under a humidified atmosphere of 5% CO2 at 37° C., and the absorption of ethidium dye was observed by measuring fluorescence with a Bio-Tek instrument FL600 fluorescent plate reader (excitation wavelength of 530 nm and emission wavelength of 590 nm). The results are expressed as a percentage relative to the maximum cumulative amount of ethidium bromide when stimulated with BzATP alone.
as §3

SMILES | mP2X1 % inhibitory effect at 10 μM [1] | inhibition at 1 µM [2] [%] | hP2X7 % inhibition of ethidium bromide accumulation [3] | inhibition at 10 µM [1] [%] | IC50 [2]
COc1ccc(CCc2nc(C)c(O)c(-c3nnn[nH]3)c2C(=O)O)cc1 [Compound 17, 5-Hydroxy-2-(4-methoxyphenethyl)-6-methyl-4-(1H-tetrazol-5-yl)nicotinic acid] | Inactive^c | 27.3 ± 1.8 | inactive |  | 
COc1ccc(CCc2nc(C)c(O)c3c(=O)[nH][nH]c(=O)c23)cc1 [Compound 19, 8-Hydroxy-5-(4-methoxyphenethyl)-7-methyl-2,3-dihydropyrido[3,4-d]pyridazine-1,4-dione] | Inactive^c | 16.3 | inactive |  | 
COc1ccc(CCc2nc(C)c(O)c(C(=O)O)c2C)cc1 [Compound 22b, 3-Hydroxy-6-(4-methoxyphenethyl)-2,5-dimethylisonicotinic acid] | Inactive^c |  | inactive |  | 384 nM and 385 nM
CCCc1nc(CCc2ccc(OC)cc2)c(C)c(C(=O)O)c1O [Compound 22c, 3-Hydroxy-6-(4-methoxyphenethyl)-5-methyl-2-propylisonicotinic acid] |  |  | Inactive | 22.7 | 303 nM
CCCc1nc(CCc2ccc(OC)cc2)c(C)c(C(N)=O)c1O [Compound 23, 5-Hydroxy-2-[2-(4-methoxyphenyl)ethyl]-3-methyl-6-propyl-pyridine-4-carboxamide] | Inactive^c |  | inactive |  | 709 nM
CCCc1nc(Cc2cccc(Oc3ccccc3)c2)c(C)c(/C=C/C(=O)O)c1O [Compound 35, (E)-3-(3-Hydroxy-5-methyl-6-(3-phenoxybenzyl)-2-propylpyridin-4-yl)acrylic acid] | Inactive^c | < 50 | inactive |  | 
CCCc1nc(Cc2cccc(Oc3ccccc3)c2)c(C)c(CNS(C)(=O)=O)c1O [Compound 43, N-((3-Hydroxy-5-methyl-6-(3-phenoxybenzyl)-2-propylpyridin-4-yl)methyl)methanesulfonamide] |  | < 50 | inactive | 43.1 ± 12.9 | 

The remaining lines, values ahead:

mP2X1 % inhibitory effect at 10 μM [1] | inhibition at 1 µM [2] [%] | hP2X7 % inhibition of ethidium bromide accumulation [3] | inhibition at 10 µM [1] [%] | IC50 [2] | SMILES
 | 27.8 | inactive | 25.3 |  | COc1ccc(CCc2nc(C)c(O)c3c2C(=O)OC3=O)cc1 [Compound 18, 7-Hydroxy-4-(4-methoxyphenethyl)-6-methylfuro[3,4-c]pyridine-1,3-dione]
inactive^c | 20.4 | inactive |  |  | COc1ccc(CCc2cc(S(C)(=O)=O)c(O)c(C)n2)cc1 [Compound 20, 6-(4-Methoxyphenethyl)-2-methyl-4-(methylsulfonyl)pyridin-3-ol]
Inactive^c |  | Inactive |  | 681 ± 98 nM | COc1ccc(CCc2cc(C(=O)O)c(O)c(C)n2)cc1 [Compound 22a, 3-Hydroxy-6-(4-methoxyphenethyl)-2-methylisonicotinic acid]
 |  | Inactive | 27.5 ± 4.5 | 301 nM | CCCc1nc(Cc2cccc(Oc3ccccc3)c2)c(C(=O)O)c(C(=O)O)c1O [Compound 27, 5-Hydroxy-2-(3-phenoxybenzyl)-6-propylpyridine-3,4-dicarboxylic acid]
inactive^c | < 50 | inactive |  |  | CCCc1nc(Cc2cccc(Oc3ccccc3)c2)c(C)c(C#N)c1O [Compound 38, 3-Hydroxy-5-methyl-6-(3-phenoxybenzyl)-2-propylisonicotinonitrile]
inactive^c | < 50 | inactive |  |  | CCCc1nc(Cc2cccc(Oc3ccccc3)c2)c(C)c(CN)c1O [Compound 41, 4-(Aminomethyl)-5-methyl-6-(3-phenoxybenzyl)-2-propylpyridin-3-ol]
